Assay results: patent publication US20070128217A1 (priority 2003, published 2007)

Key:
[1] = tested on: recombinant human anti-SARS-CoV antibody 03-018; type: binding; design: Binding of antibody 03-018 to linear peptides of the N protein of SARS-CoV Urbani / Binding of antibody 03-018 to looped/cyclic peptides of the N protein of SARS-CoV Urbani: unit not given here
[2] = tested on: control sera (pooled serum of ten healthy LUMC hospital workers; commercial negative donor pooled serum from the Dutch bloodbank); type: binding, human; design: Binding of Control serum LUMC to linear peptides / Binding of Control serum Blood-bank to linear peptides / Binding of Control serum LUMC to looped peptides / Binding of Control Serum Blood-Bank to Looped peptides / Binding of Control serum LUMC to linear peptides of the protein M of SARS-CoV Urbani / Binding of Control serum Blood-bank to linear peptides of the protein M of SARS-CoV Urbani / Binding of Control serum LUMC to looped peptides of the protein M of SARS-CoV Urbani / Binding of Control Serum Blood-Bank to Looped peptides of the protein M of SARS-CoV Urbani: unit not given here
[3] = tested on: rabbit serum obtained by immunizing a rabbit with the SARS-CoV strain Frankfurt 1; type: binding; design: Binding of a rabbit serum to linear peptides / Binding of a rabbit serum to looped peptides / Rabbit serum linear peptides / Rabbit serum looped peptides / Binding of a rabbit serum to linear peptides of protein N of SARS-CoV Urbani (Rabbit serum linear peptides) / Binding of a rabbit serum to looped/cyclic peptides of protein N of SARS-CoV Urbani (Rabbit serum looped peptides): unit not given here
[4] = tested on: antibodies in sera from SARS patients (sera 1a, 1b, 2, 6, 37, 62, London, SARS-yellow, SARS-green); type: binding, human; design: Binding of serum 6 to linear peptides of protein X1 of SARS-CoV Urbani / Binding of serum 37 to linear peptides of protein X1 of SARS-CoV Urbani / Binding of serum 6 to looped/cyclic peptide (PEPSCAN-ELISA) / Binding of serum 37 to looped/cyclic peptide (PEPSCAN-ELISA) / Binding of serum 37 to looped/cyclic peptides of protein X1 of SARS-CoV Urbani / Binding of serum 6 to linear peptides of protein X2 / Binding of serum 37 to linear peptides of protein X2 / Binding of serum 37 to looped/cyclic peptides of protein X2 of SARS-CoV Urbani / Binding of serum 6 to linear peptides of protein M of SARS-CoV Urbani / Binding of serum 37 to linear peptides of protein M of SARS-CoV Urbani / Binding of serum 6 to looped/cyclic peptides of protein M of SARS-CoV Urbani / Binding of serum 37 to looped/cyclic peptides of protein M of SARS-CoV Urbani / Binding of serum 6 to linear peptides of protein X3 of SARS-CoV Urbani / Binding of serum 37 to linear peptides of protein X3 of SARS-CoV Urbani / Binding of serum 37 to looped/cyclic peptides of protein X3 of SARS-CoV Urbani / Binding of serum 6 to linear peptides of protein X4 of SARS-CoV Urbani / Binding of serum 37 to linear peptides of protein X4 of SARS-CoV Urbani / Binding of serum 37 to looped/cyclic peptides of protein X4 of SARS-CoV Urbani / Binding of serum 6 to linear peptides of protein X5 of SARS-CoV Urbani / Binding of serum 37 to linear peptides of protein X5 of SARS-CoV Urbani / Binding of serum 37 to looped/cyclic peptides of protein X5 of SARS-CoV Urbani / Binding of serum 6 to linear peptides of protein N of SARS-CoV Urbani / Binding of serum 37 to linear peptides of protein N of SARS-CoV Urbani / Binding of serum 6 to linear peptide (PEPSCAN-ELISA) / Binding of serum 1a to looped/cyclic peptides of protein N of SARS-CoV Urbani / Binding of serum 1b to looped/cyclic peptides of protein N of SARS-CoV Urbani / Binding of serum 2 to looped/cyclic peptides of protein N of SARS-CoV Urbani / Binding of serum 6 to looped/cyclic peptides of protein N of SARS-CoV Urbani / Binding of serum 37 to looped/cyclic peptides of protein N of SARS-CoV Urbani / Binding of serum 62 to looped/cyclic peptides of protein N of SARS-CoV Urbani / Binding of serum London to looped/cyclic peptides of protein N of SARS-CoV Urbani / Binding of serum SARS-green to looped/cyclic peptides of protein N of SARS-CoV Urbani: unit not given here

Sequence | Binding of antibody 03-018 to linear peptides of the N protein of SARS-CoV Urbani [1] | Binding of antibody 03-018 to looped/cyclic peptides of the N protein of SARS-CoV Urbani [1] | Binding of serum 1a to linear peptides of protein N of SARS-CoV Urbani [4] | Binding of serum 1a to looped/cyclic peptides of protein N of SARS-CoV Urbani [4] | Binding of serum 1b to linear peptides of protein N of SARS-CoV Urbani [4] | Binding of serum 1b to looped/cyclic peptides of protein N of SARS-CoV Urbani [4] | Binding of serum 2 to linear peptides of protein N of SARS-CoV Urbani [4] | Binding of serum 2 to looped/cyclic peptides of protein N of SARS-CoV Urbani [4] | Binding of serum 6 to linear peptides of protein N of SARS-CoV Urbani [4] | Binding of serum 6 to looped/cyclic peptides of protein N of SARS-CoV Urbani [4] | Binding of serum 37 to linear peptides of protein N of SARS-CoV Urbani [4] | Binding of serum 37 to looped/cyclic peptides of protein N of SARS-CoV Urbani [4] | Binding of serum 62 to linear peptides of protein N of SARS-CoV Urbani [4] | Binding of serum 62 to looped/cyclic peptides of protein N of SARS-CoV Urbani [4] | Binding of serum London to linear peptides of protein N of SARS-CoV Urbani [4] | Binding of serum London to looped/cyclic peptides of protein N of SARS-CoV Urbani [4] | Binding of serum SARS-green to linear peptides of protein N of SARS-CoV Urbani [4] | Binding of serum SARS-green to looped/cyclic peptides of protein N of SARS-CoV Urbani [4] | Binding of serum SARS-yellow to linear peptides of protein N of SARS-CoV Urbani [4] | Binding of serum SARS-yellow to looped/cyclic peptides of protein N of SARS-CoV Urbani [4] | also measured
IGTRNPNNNAATVLQ | 0.1 | 0.3 | 0.3 | 0.4 | 0.1 | 0.3 | 0.4 | 0.7 | 0.2 | 0.4 | 0.7 | 0.9 | 0.8 | 0.8 | 0.5 | 0.6 | 0.5 | 0.7 | 0.6 | 0.5 | Binding of Control Serum Blood-Bank to Looped peptides [2]: 0.9; Binding of Control serum Blood-bank to linear peptides [2]: 0.8; Binding of Control serum LUMC to linear peptides [2]: 0.9; Binding of Control serum LUMC to looped peptides [2]: 0.8; Binding of a rabbit serum to linear peptides of protein N of SARS-CoV Urbani (Rabbit serum linear peptides) [3]: 0.1; Binding of a rabbit serum to looped/cyclic peptides of protein N of SARS-CoV Urbani (Rabbit serum looped peptides) [3]: 0.4
IGYYRRATRRVRGGD | 0.1 | 0.2 | 0.2 | 0.3 | 0.1 | 0.2 | 0.1 | 0.5 | 0.2 | 0.3 | 0.5 | 0.7 | 0.4 | 0.6 | 0.4 | 0.4 | 0.2 | 0.3 | 0.6 | 0.5 | Binding of Control Serum Blood-Bank to Looped peptides [2]: 0.7; Binding of Control serum Blood-bank to linear peptides [2]: 0.7; Binding of Control serum LUMC to linear peptides [2]: 0.5; Binding of Control serum LUMC to looped peptides [2]: 0.7; Recognition of the peptide by the rabbit serum [3]: recognized
ILLNKHIDAYKTFPP | 0.1 | 0.2 | 0.2 | 0.4 | 0.1 | 0.3 | 0.2 | 0.5 | 0.2 | 0.3 | 0.7 | 0.7 | 0.7 | 0.7 | 0.5 | 0.5 | 0.3 | 0.5 | 0.5 | 0.7 | Control Serum Blood-Bank Looped peptides [2]: 0.6; Control serum Blood-bank linear peptides [2]: 0.7; Control serum LUMC linear peptides [2]: 0.7; Control serum LUMC looped peptides [2]: 0.7; Binding of a rabbit serum to linear peptides of protein N of SARS-CoV Urbani (Rabbit serum linear peptides) [3]: 0.2; Binding of a rabbit serum to looped/cyclic peptides of protein N of SARS-CoV Urbani (Rabbit serum looped peptides) [3]: 0.6
INTNSGPDDQIGYYR | 0.1 | 0.2 | 0.3 | 0.4 | 0.2 | 0.3 | 0.2 | 0.4 | 0.2 | 0.2 | 0.9 | 0.7 | 0.7 | 0.5 | 0.4 | 0.4 | 0.2 | 0.5 | 0.7 | 0.5 | Binding of Control Serum Blood-Bank to Looped peptides [2]: 0.6; Binding of Control serum Blood-bank to linear peptides [2]: 0.8; Binding of Control serum LUMC to linear peptides [2]: 0.7; Binding of Control serum LUMC to looped peptides [2]: 0.7; Binding of a rabbit serum to linear peptides of protein N of SARS-CoV Urbani (Rabbit serum linear peptides) [3]: 0.2; Binding of a rabbit serum to looped/cyclic peptides of protein N of SARS-CoV Urbani (Rabbit serum looped peptides) [3]: 0.5
